Results reported in US11179399B2, “6-heterocyclyl-4-morpholin-4-ylpyridine-2-one compounds useful for the treatment of cancer and diabetes” (Sprint Bioscience AB, priority 2016, dated 2021).

Tests used:
[1] = test system: autophagy in HOS cells (GFP-LC3); assay: High content screening autophagy assay (GFP-LC3 foci); format: cell-based, Human; settings: Homo sapiens, HOS, 6 h, HOS cells with GFP-LC3, autophagy activated by KU-0063794 500 nM with Bafilomycin A1 5 nM, foci area per cell, read-out: Median IC50 (uM) Cellular assay
Protocol: Human osteosarcoma cells (HOS) stably expressing a Green Fluorescent Protein (GFP) tagged LC3 (GFP-LC3) were used to determine the inhibitory effect on autophagy of proprietary compounds. For that purpose, autophagy was activated by using the mTOR inhibitor KU-0063794 at 500 nM in the presence of Bafilomycin A1 (Sigma-Aldrich) at 5 nM. Shortly, cells were plated overnight in clear bottom 96-well plates in DMEM-High Modified media (Hi-Clone Cat #SH30285.01). At the start of the experiment, the media was removed and replaced with fresh media containing the mTOR inhibitor, Bafilomycin A1 and the vehicle or a test compound as indicated. After 6 hours the media was removed, cells were washed twice with ice-cold phosphate buffered saline (PBS) and fixed with 4% paraformaldehyde for 20 minutes at room temperature. Then the cells were washed twice with ice-cold PBS before adding Hoechst 33342 at 1 μg/ml in PBS for nuclear staining. After incubation overnight at 4° C., cells were washed once with PBS to remove the excess of dye and 100 μl of PBS was added to each well. Images were acquired at 20× magnification, 6 images per well, using the ImageXpress automated microscope (Molecular Devices Inc.) and analyzed with MetaXpress software to identify LC3-GFP foci. Foci area per cell values were used to generate dose response curves and IC50 values were calculated using the non-linear fitting analysis in GraphPad Prism software.

Vps34 enzyme = Vps34 enzyme (Homo sapiens (Human), UniProt Q8NEB9); assay: Vps34 biochemical assay (Adapta kinase assay); settings: 20 μM ATP and 200 μM PI:PS in substrate mix, 1 h at room temperature, read-out: Median IC50 uM Adapta
Protocol: Dilution series of compounds of the invention were prepared in DMSO at 100 times the final assay concentration (n1=n0/3 in 10 points). The compounds were further diluted to 4 times the assay concentration in assay buffer (Life technologies buffer Q, PV5125, diluted 5 times supplemented with 2 mM DTT and 2 mM MnCl2). 2.5 μl of the diluted compounds were added to a 384 well assay plate followed by 2.5 μl of 16.5 nM Vps34 enzyme (Life technologies, PV5126). Enzyme and compounds were pre-incubated at rt for 15 min. Then 5 μl of substrate mix containing 20 μM ATP (Life technologies, PV3227) and 200 μM PI:PS substrate (Life technologies, PV5122) in assay buffer was added to the wells containing compound and enzyme. Mixing was performed by pipetting several times. The reaction was incubated at room temperature for 1 h. Then 5 μl stop-detection mix, prepared as described in the Adapta kinase assay kit instructions (Life technologies, PV5099) containing Adapta Eu-anti-ADP antibody (2.3 nM), Alexa Fluor 647 ADP tracer (9 nM) and EDTA (30 mM) in TR-FRET buffer, was added to quench the reaction. Mixing was performed by pipetting several times. The assay plate was then incubated at room temperature for 30 min and read with Artemis micro plate reader. Percent inhibition of the compounds as compared to DMSO treated control samples was calculated. By the use of Dotmatics software compound concentration versus percent inhibition was fitted to generate IC50 values.

Vps34 enzyme, sequence (Q8NEB9 whole entry): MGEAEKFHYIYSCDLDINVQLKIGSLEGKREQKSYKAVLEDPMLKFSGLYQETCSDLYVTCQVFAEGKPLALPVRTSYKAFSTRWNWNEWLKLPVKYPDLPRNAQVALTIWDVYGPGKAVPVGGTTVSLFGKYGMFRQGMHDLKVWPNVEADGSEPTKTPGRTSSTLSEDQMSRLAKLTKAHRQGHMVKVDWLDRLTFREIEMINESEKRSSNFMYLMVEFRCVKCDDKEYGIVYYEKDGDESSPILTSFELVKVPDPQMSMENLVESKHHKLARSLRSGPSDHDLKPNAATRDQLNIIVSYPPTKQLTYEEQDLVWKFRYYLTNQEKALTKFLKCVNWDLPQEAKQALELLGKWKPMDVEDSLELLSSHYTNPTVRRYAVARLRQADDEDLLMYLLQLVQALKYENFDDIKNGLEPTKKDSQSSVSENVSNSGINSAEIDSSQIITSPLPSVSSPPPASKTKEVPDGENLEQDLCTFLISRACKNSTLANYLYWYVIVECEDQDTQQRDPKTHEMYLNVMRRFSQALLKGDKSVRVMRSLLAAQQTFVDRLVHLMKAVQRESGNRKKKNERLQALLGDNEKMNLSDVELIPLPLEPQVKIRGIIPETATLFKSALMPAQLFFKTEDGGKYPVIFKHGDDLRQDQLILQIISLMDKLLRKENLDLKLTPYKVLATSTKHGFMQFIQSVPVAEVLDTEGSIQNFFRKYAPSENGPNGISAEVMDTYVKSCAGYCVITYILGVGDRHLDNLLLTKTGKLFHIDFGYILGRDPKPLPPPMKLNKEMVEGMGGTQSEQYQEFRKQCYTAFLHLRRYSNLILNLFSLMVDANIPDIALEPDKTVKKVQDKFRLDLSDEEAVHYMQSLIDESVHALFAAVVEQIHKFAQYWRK

**Q.** For `CC1COCCN1c1cc(N2CCCC2c2ccccc2)[nH]c(=O)c1` (stereo not shown) [Example 9, 4-(3-methylmorpholin-4-yl)-6-(2-phenylpyrrolidin-1-yl)-1H-pyridin-2-one], which IC50 [1] is on record?
**A.** 2 µM

**Q.** And the IC50 (Vps34 enzyme)?
**A.** 0.02 µM

**Q.** With `C[C@@H]1COCCN1c1cc(N2CCCC[C@@H]2c2ccccc2)[nH]c(=O)c1` [Example 30, 4-[(3R)-3-methylmorpholin-4-yl]-6-[(2R)-2-phenyl-1-piperidyl]-1H-pyridin-2-one] as the compound, how does the IC50 [1] read?
**A.** 0.6 µM

**Q.** What about the IC50 (Vps34 enzyme) of the same compound?
**A.** 0.008 µM

**Q.** `C[C@@H]1COCCN1c1cc(N2CCOCC2C(F)(F)F)[nH]c(=O)c1` (stereo partly drawn) [Example 32, 4-[(3R)-3-methylmorpholin-4-yl]-6-[3-(trifluoromethyl)morpholin-4-yl]-1H-pyridin-2-one] was tested. Which IC50 [1] did it give?
**A.** 0.3 µM

**Q.** What about the IC50 (Vps34 enzyme) of the same compound?
**A.** 0.006 µM

**Q.** What does the source list for `C[C@@H]1COCCN1c1cc(N2CCC[C@@H]2C(F)(F)F)[nH]c(=O)c1` [Example 35, 4-[(3R)-3-methylmorpholin-4-yl]-6-[(2R)-2-(trifluoromethyl)pyrrolidin-1-yl]-1H-pyridin-2-one]?
**A.** IC50 [1]: 0.7 µM; IC50 (Vps34 enzyme): 0.009 µM

**Q.** `C[C@@H]1COCCN1c1cc(N2CCCC2c2cccc(C3CC3)c2)[nH]c(=O)c1` (stereo partly drawn) [Example 37, 6-[2-(3-cyclopropylphenyl)pyrrolidin-1-yl]-4-[(3R)-3-methylmorpholin-4-yl]-1H-pyridin-2-one] was tested. Which IC50 [1] did it give?
**A.** 0.3 µM

**Q.** And the IC50 (Vps34 enzyme)?
**A.** 0.02 µM

**Q.** With `C[C@@H]1COCCN1c1cc(N2CCCC[C@@H]2C(F)(F)F)n(C)c(=O)c1` [Example 41, 1-methyl-4-[(3R)-3-methylmorpholin-4-yl]-6-[(2R)-2-(trifluoromethyl)-1-piperidyl]pyridin-2-one] as the compound, how does the IC50 [1] read?
**A.** 0.08 µM

**Q.** What about the IC50 (Vps34 enzyme) of the same compound?
**A.** 0.01 µM

**Q.** For `CC(=O)N1CCN(c2cc(N3CCOC[C@H]3C)cc(=O)[nH]2)C(C(F)(F)F)C1` (stereo partly drawn) [Example 45, 6-[4-acetyl-2-(trifluoromethyl)piperazin-1-yl]-4-[(3R)-3-methylmorpholin-4-yl]-1H-pyridin-2-one], which IC50 [1] is on record?
**A.** 0.1 µM

**Q.** And the IC50 (Vps34 enzyme)?
**A.** 0.003 µM

**Q.** How did the IC50 [1] turn out when `C[C@@H]1COCCN1c1cc(N2CCN(C(=O)Cc3ccc(F)cc3)CC2C(F)(F)F)[nH]c(=O)c1` (stereo partly drawn) [Example 47, 6-[4-[2-(4-fluorophenyl)acetyl]-2-(trifluoromethyl)piperazin-1-yl]-4-[(3R)-3-methylmorpholin-4-yl]-1H-pyridin-2-one] was run?
**A.** 0.09 µM

**Q.** And the IC50 (Vps34 enzyme)?
**A.** 0.006 µM
